Values quoted from earlier work, collected in PMC6606825 (Journal of Ginseng Research, 2018).

Key:
[1] = test system: cytochrome P450 enzymes (CYPs); conditions: in vitro; ref unpublished; cited from earlier work
[2] = PK data in animals and healthy individuals; cited from earlier work

Structure (SMILES): CC(C)=CCC[C@](C)(O[C@@H]1O[C@H](CO)[C@@H](O)[C@H](O)[C@H]1O)[C@H]1CC[C@]2(C)[C@@H]1[C@H](O)C[C@@H]1[C@@]3(C)CC[C@H](O)C(C)(C)[C@@H]3CC[C@]12C [Ginsenoside compound K, 20-O-beta-D-glucopyranosyl-20(S)-protopanaxadiol]
- effects of CYPs on CK [1]: minimal effects
- oral bioavailability [2]: poor oral bioavailability
